According to the kinase profiling compilation of Christmann-Franck et al. (2016):

Columns and labels:
Test in all cases: KINOMEscan competition binding
Conditions in all cases: compound 10.0 µM
FGFR1 (human) = FGFR1 (human) (UniProt P11362)
SGK3 (human) = SGK3 (human) (UniProt Q96BR1)
CDC42BPA (human) = CDC42BPA (human) (UniProt Q5VT25)
MAP4K3 (human) = MAP4K3 (human) (UniProt Q8IVH8)
TXK (human) = TXK (human) (UniProt P42681)
CSNK1E (human) = CSNK1E (human) (UniProt P49674)
PAK1 (human) = PAK1 (human) (UniProt Q13153)
TNK1 (human) = TNK1 (human) (UniProt Q13470)
CDKL2 (human) = CDKL2 (human) (UniProt Q92772)
RAF1 (human) = RAF1 (human) (UniProt P04049)
PTK2 (human) = PTK2 (human) (UniProt Q05397)
ITK (human) = ITK (human) (UniProt Q08881)
RIOK3 (human) = RIOK3 (human) (UniProt O14730)
TESK1 (human) = TESK1 (human) (UniProt Q15569)
PLK4 (human) = PLK4 (human) (UniProt O00444)
TNIK (human) = TNIK (human) (UniProt Q9UKE5)
PKN1 (human) = PKN1 (human) (UniProt Q16512)
ROS1 (human) = ROS1 (human) (UniProt P08922)
CDK15 (human) = CDK15 (human) (UniProt Q96Q40)
MINK1 (human) = MINK1 (human) (UniProt Q8N4C8)
HIPK3 (human) = HIPK3 (human) (UniProt Q9H422)
MYO3B (human) = MYO3B (human) (UniProt Q8WXR4)
ACVR2A (human) = ACVR2A (human) (UniProt P27037)
MARK4 (human) = MARK4 (human) (UniProt Q96L34)
MAPK8 (human) = MAPK8 (human) (UniProt P45983)
[1] = system: FLT3 (human), P36888 [D835H]
EPHA4 (human) = EPHA4 (human) (UniProt P54764)
FYN (human) = FYN (human) (UniProt P06241)
[2] = system: RET (human), P07949 [V804M]
NEK5 (human) = NEK5 (human) (UniProt Q6P3R8)
MAP2K6 (human) = MAP2K6 (human) (UniProt P52564)
SLK (human) = SLK (human) (UniProt Q9H2G2)
MAP4K4 (human) = MAP4K4 (human) (UniProt O95819)
ULK1 (human) = ULK1 (human) (UniProt O75385)
LYN (human) = LYN (human) (UniProt P07948)
BRSK2 (human) = BRSK2 (human) (UniProt Q8IWQ3)
PRKACB (human) = PRKACB (human) (UniProt P22694)
GRK4 (human) = GRK4 (human) (UniProt P32298)
PRKACA (human) = PRKACA (human) (UniProt P17612)
SYK (human) = SYK (human) (UniProt P43405)
FGFR4 (human) = FGFR4 (human) (UniProt P22455)

Sequence of RET (human), P07949 [V804M] (P07949 whole entry V804M, looked up): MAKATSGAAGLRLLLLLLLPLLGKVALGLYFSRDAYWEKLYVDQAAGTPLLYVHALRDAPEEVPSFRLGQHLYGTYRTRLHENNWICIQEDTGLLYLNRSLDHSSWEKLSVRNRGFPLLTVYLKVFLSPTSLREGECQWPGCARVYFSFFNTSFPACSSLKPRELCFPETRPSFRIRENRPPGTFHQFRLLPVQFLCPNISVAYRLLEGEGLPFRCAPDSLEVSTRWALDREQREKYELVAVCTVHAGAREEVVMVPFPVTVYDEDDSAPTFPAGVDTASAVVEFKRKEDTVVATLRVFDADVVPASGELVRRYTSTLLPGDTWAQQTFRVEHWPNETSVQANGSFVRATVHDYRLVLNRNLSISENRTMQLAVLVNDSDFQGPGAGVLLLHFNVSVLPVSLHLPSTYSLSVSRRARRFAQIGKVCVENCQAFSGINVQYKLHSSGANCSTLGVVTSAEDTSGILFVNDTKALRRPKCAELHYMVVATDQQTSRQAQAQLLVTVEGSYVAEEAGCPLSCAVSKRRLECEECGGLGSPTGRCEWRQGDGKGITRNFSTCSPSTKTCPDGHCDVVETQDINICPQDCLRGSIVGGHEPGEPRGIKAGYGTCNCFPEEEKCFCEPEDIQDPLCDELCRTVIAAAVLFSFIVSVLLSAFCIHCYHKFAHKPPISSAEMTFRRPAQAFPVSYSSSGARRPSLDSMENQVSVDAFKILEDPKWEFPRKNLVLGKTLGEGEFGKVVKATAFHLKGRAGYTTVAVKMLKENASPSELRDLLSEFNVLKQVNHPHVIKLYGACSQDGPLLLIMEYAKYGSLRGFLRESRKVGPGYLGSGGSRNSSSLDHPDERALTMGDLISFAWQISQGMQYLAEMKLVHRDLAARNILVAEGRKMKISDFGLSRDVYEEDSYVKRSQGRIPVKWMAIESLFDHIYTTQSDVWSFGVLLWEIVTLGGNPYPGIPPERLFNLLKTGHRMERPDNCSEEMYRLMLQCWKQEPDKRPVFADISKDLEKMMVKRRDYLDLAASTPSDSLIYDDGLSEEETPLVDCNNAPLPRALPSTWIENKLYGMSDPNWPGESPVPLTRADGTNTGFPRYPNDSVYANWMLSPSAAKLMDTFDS
Sequence of ITK (human) (Q08881 whole entry, looked up): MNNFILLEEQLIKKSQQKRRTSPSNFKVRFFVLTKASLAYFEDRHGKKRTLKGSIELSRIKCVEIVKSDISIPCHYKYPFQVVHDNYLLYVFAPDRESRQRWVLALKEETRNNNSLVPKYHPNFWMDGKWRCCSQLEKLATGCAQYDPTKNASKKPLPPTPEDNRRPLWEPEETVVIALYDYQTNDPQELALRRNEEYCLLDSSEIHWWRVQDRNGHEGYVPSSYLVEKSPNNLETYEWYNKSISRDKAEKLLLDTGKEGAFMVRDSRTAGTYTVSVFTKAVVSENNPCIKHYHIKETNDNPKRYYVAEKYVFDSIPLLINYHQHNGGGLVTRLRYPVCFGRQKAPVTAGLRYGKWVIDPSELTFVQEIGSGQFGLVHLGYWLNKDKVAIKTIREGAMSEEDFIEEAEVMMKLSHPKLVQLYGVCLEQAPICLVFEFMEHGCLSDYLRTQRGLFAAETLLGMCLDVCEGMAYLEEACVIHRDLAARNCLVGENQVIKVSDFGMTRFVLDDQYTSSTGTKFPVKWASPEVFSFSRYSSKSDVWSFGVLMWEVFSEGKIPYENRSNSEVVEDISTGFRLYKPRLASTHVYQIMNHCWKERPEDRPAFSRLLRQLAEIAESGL
Sequence of FGFR1 (human) (P11362 whole entry, looked up): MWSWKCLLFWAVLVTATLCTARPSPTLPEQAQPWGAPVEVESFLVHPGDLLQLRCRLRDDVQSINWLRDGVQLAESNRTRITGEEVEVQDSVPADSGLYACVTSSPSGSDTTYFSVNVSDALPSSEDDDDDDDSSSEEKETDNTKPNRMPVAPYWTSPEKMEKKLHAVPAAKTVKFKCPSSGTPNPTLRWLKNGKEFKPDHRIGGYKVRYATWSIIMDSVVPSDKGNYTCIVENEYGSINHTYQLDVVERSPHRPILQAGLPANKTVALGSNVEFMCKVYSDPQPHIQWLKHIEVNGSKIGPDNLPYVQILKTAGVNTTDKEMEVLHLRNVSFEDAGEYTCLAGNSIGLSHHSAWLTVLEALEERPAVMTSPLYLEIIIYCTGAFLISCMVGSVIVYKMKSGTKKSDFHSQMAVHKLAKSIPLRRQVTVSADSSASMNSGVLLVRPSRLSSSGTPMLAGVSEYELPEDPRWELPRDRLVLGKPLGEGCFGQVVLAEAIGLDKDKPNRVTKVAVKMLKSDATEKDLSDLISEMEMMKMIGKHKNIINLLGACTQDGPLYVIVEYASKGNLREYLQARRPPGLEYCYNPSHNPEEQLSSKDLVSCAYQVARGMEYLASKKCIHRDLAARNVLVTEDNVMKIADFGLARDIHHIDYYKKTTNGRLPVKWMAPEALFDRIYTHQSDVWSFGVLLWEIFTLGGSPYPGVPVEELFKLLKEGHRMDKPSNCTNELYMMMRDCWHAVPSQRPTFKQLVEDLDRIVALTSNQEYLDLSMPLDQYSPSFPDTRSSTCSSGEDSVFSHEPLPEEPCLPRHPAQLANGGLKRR
Sequence of TNIK (human) (Q9UKE5 whole entry, looked up): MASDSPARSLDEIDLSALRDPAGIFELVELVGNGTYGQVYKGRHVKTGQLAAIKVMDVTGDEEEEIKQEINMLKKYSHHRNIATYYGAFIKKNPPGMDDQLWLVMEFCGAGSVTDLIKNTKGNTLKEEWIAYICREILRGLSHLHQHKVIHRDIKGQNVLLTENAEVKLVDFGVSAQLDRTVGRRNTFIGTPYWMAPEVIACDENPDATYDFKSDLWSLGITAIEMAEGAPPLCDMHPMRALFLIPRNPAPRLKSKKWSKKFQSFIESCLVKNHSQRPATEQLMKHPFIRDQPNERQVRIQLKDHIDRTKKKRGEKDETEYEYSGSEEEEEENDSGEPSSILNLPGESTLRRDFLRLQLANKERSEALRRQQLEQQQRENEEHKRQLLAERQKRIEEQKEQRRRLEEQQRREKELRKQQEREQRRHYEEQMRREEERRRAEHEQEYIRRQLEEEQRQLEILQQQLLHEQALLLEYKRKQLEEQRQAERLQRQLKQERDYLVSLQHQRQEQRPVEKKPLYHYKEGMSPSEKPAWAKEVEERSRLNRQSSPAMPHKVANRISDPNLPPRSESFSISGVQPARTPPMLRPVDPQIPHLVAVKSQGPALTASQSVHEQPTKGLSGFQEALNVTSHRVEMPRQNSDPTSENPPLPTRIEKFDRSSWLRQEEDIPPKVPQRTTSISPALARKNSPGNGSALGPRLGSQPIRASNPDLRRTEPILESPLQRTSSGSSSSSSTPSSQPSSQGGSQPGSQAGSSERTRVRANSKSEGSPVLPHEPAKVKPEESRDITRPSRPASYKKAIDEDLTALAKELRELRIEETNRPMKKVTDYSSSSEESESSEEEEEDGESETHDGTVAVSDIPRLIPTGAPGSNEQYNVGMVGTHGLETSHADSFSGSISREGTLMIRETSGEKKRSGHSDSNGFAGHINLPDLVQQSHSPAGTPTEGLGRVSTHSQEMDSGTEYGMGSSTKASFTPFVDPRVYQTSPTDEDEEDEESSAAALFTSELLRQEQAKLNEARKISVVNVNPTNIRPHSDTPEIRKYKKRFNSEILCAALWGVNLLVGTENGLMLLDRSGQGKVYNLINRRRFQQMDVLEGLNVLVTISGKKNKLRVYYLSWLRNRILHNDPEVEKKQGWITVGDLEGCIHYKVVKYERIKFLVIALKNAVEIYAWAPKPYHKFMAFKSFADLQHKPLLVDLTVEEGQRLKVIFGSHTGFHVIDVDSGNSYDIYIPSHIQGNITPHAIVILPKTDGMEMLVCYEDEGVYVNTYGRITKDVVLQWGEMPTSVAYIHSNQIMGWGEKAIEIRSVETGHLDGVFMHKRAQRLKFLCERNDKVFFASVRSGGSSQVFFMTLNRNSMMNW
Sequence of MAPK8 (human) (P45983 whole entry, looked up): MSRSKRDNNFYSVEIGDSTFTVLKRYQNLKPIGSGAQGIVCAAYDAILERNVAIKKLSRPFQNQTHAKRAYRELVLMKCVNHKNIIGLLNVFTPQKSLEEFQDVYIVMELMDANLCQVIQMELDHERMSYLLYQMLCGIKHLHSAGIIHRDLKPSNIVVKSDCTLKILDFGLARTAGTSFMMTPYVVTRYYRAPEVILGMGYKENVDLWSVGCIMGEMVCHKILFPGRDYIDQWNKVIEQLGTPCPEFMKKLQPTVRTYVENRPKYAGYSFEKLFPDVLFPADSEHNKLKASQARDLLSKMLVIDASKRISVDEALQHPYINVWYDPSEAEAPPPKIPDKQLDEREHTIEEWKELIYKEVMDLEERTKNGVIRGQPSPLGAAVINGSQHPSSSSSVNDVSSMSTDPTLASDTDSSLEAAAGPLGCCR
Sequence of CSNK1E (human) (P49674 whole entry, looked up): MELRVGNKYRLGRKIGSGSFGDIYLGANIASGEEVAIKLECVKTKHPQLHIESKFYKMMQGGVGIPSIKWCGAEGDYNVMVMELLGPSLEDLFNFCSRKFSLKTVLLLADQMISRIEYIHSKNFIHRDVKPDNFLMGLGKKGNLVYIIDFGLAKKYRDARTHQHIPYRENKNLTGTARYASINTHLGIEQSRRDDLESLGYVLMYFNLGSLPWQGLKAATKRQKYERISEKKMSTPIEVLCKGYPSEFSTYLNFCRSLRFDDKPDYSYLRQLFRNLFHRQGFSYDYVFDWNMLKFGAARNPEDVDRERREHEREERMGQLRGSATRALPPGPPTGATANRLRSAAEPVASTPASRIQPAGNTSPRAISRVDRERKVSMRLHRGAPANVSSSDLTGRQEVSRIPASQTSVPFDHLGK

SMILES: NC(=O)Nc1cc(-c2cccc(F)c2)sc1C(=O)N[C@@H]1CCCNC1
- kinase still bound, per cent of control (FGFR1 (human)): 1.3%
- kinase still bound, per cent of control (SGK3 (human)): 27%
- kinase still bound, per cent of control (CDC42BPA (human)): 62%
- kinase still bound, per cent of control (MAP4K3 (human)): 0.35%
- kinase still bound, per cent of control (TXK (human)): 0.1%
- kinase still bound, per cent of control (CSNK1E (human)): 11%
- kinase still bound, per cent of control (PAK1 (human)): 1.2%
- kinase still bound, per cent of control (TNK1 (human)): 1.4%
- kinase still bound, per cent of control (CDKL2 (human)): 60%
- kinase still bound, per cent of control (RAF1 (human)): 100%
- kinase still bound, per cent of control (PTK2 (human)): 0.1%
- kinase still bound, per cent of control (ITK (human)): 0.55%
- kinase still bound, per cent of control (RIOK3 (human)): 0.4%
- kinase still bound, per cent of control (TESK1 (human)): 11%
- kinase still bound, per cent of control (PLK4 (human)): 0%
- kinase still bound, per cent of control (TNIK (human)): 0.1%
- kinase still bound, per cent of control (PKN1 (human)): 0%
- kinase still bound, per cent of control (ROS1 (human)): 2%
- kinase still bound, per cent of control (CDK15 (human)): 73%
- kinase still bound, per cent of control (MINK1 (human)): 1.6%
- kinase still bound, per cent of control (HIPK3 (human)): 12%
- kinase still bound, per cent of control (MYO3B (human)): 8.2%
- kinase still bound, per cent of control (ACVR2A (human)): 2.2%
- kinase still bound, per cent of control (MARK4 (human)): 2.2%
- kinase still bound, per cent of control (MAPK8 (human)): 29%
- kinase still bound, per cent of control [1]: 0%
- kinase still bound, per cent of control (EPHA4 (human)): 3.4%
- kinase still bound, per cent of control (FYN (human)): 0.05%
- kinase still bound, per cent of control [2]: 0%
- kinase still bound, per cent of control (NEK5 (human)): 90%
- kinase still bound, per cent of control (MAP2K6 (human)): 3.8%
- kinase still bound, per cent of control (SLK (human)): 0.05%
- kinase still bound, per cent of control (MAP4K4 (human)): 0.5%
- kinase still bound, per cent of control (ULK1 (human)): 0%
- kinase still bound, per cent of control (LYN (human)): 0.65%
- kinase still bound, per cent of control (BRSK2 (human)): 2.8%
- kinase still bound, per cent of control (PRKACB (human)): 1.8%
- kinase still bound, per cent of control (GRK4 (human)): 0%
- kinase still bound, per cent of control (PRKACA (human)): 1.4%
- kinase still bound, per cent of control (SYK (human)): 0.05%
- kinase still bound, per cent of control (FGFR4 (human)): 13%

SMILES: O=C(Nc1cccc(Nc2ncc(Br)c(NCCc3cnc[nH]3)n2)c1)N1CCCC1
- kinase still bound, per cent of control (FGFR1 (human)): 0.25%
- kinase still bound, per cent of control (SGK3 (human)): 91%
- kinase still bound, per cent of control (CDC42BPA (human)): 95%
- kinase still bound, per cent of control (MAP4K3 (human)): 4.6%
- kinase still bound, per cent of control (TXK (human)): 17%
- kinase still bound, per cent of control (CSNK1E (human)): 70%
- kinase still bound, per cent of control (PAK1 (human)): 36%
- kinase still bound, per cent of control (TNK1 (human)): 1.4%
- kinase still bound, per cent of control (CDKL2 (human)): 4.7%
- kinase still bound, per cent of control (RAF1 (human)): 100%
- kinase still bound, per cent of control (PTK2 (human)): 0.2%
- kinase still bound, per cent of control (ITK (human)): 4.5%
- kinase still bound, per cent of control (RIOK3 (human)): 0.5%
- kinase still bound, per cent of control (TESK1 (human)): 99%
- kinase still bound, per cent of control (PLK4 (human)): 0.7%
- kinase still bound, per cent of control (TNIK (human)): 0.8%
- kinase still bound, per cent of control (PKN1 (human)): 0.3%
- kinase still bound, per cent of control (ROS1 (human)): 97%
- kinase still bound, per cent of control (CDK15 (human)): 25%
- kinase still bound, per cent of control (MINK1 (human)): 4.2%
- kinase still bound, per cent of control (HIPK3 (human)): 3.7%
- kinase still bound, per cent of control (MYO3B (human)): 93%
- kinase still bound, per cent of control (ACVR2A (human)): 6.4%
- kinase still bound, per cent of control (MARK4 (human)): 0%
- kinase still bound, per cent of control (MAPK8 (human)): 0.2%
- kinase still bound, per cent of control [1]: 0.2%
- kinase still bound, per cent of control (EPHA4 (human)): 100%
- kinase still bound, per cent of control (FYN (human)): 8.2%
- kinase still bound, per cent of control [2]: 0.05%
- kinase still bound, per cent of control (NEK5 (human)): 0.5%
- kinase still bound, per cent of control (MAP2K6 (human)): 22%
- kinase still bound, per cent of control (SLK (human)): 0.35%
- kinase still bound, per cent of control (MAP4K4 (human)): 2.4%
- kinase still bound, per cent of control (ULK1 (human)): 0.05%
- kinase still bound, per cent of control (LYN (human)): 24%
- kinase still bound, per cent of control (BRSK2 (human)): 5.8%
- kinase still bound, per cent of control (PRKACB (human)): 1%
- kinase still bound, per cent of control (GRK4 (human)): 5.6%
- kinase still bound, per cent of control (PRKACA (human)): 0.95%
- kinase still bound, per cent of control (SYK (human)): 0.95%
- kinase still bound, per cent of control (FGFR4 (human)): 1.8%

SMILES: CNC(=O)c1cc(Oc2ccc(NC(=O)Nc3ccc(Cl)c(C(F)(F)F)c3)cc2)ccn1
- kinase still bound, per cent of control (FGFR1 (human)): 5.2%
- kinase still bound, per cent of control (SGK3 (human)): 82%
- kinase still bound, per cent of control (CDC42BPA (human)): 95%
- kinase still bound, per cent of control (MAP4K3 (human)): 54%
- kinase still bound, per cent of control (TXK (human)): 77%
- kinase still bound, per cent of control (CSNK1E (human)): 100%
- kinase still bound, per cent of control (PAK1 (human)): 62%
- kinase still bound, per cent of control (TNK1 (human)): 37%
- kinase still bound, per cent of control (CDKL2 (human)): 0.3%
- kinase still bound, per cent of control (RAF1 (human)): 0.05%
- kinase still bound, per cent of control (PTK2 (human)): 99%
- kinase still bound, per cent of control (ITK (human)): 100%
- kinase still bound, per cent of control (RIOK3 (human)): 100%
- kinase still bound, per cent of control (TESK1 (human)): 62%
- kinase still bound, per cent of control (PLK4 (human)): 28%
- kinase still bound, per cent of control (TNIK (human)): 27%
- kinase still bound, per cent of control (PKN1 (human)): 99%
- kinase still bound, per cent of control (ROS1 (human)): 83%
- kinase still bound, per cent of control (CDK15 (human)): 19%
- kinase still bound, per cent of control (MINK1 (human)): 46%
- kinase still bound, per cent of control (HIPK3 (human)): 0.6%
- kinase still bound, per cent of control (MYO3B (human)): 28%
- kinase still bound, per cent of control (ACVR2A (human)): 100%
- kinase still bound, per cent of control (MARK4 (human)): 100%
- kinase still bound, per cent of control (MAPK8 (human)): 100%
- kinase still bound, per cent of control (EPHA4 (human)): 42%
- kinase still bound, per cent of control (FYN (human)): 48%
- kinase still bound, per cent of control [2]: 0%
- kinase still bound, per cent of control (NEK5 (human)): 90%
- kinase still bound, per cent of control (MAP2K6 (human)): 76%
- kinase still bound, per cent of control (SLK (human)): 15%
- kinase still bound, per cent of control (MAP4K4 (human)): 18%
- kinase still bound, per cent of control (ULK1 (human)): 100%
- kinase still bound, per cent of control (LYN (human)): 16%
- kinase still bound, per cent of control (BRSK2 (human)): 85%
- kinase still bound, per cent of control (PRKACB (human)): 100%
- kinase still bound, per cent of control (GRK4 (human)): 100%
- kinase still bound, per cent of control (PRKACA (human)): 63%
- kinase still bound, per cent of control (SYK (human)): 88%
- kinase still bound, per cent of control (FGFR4 (human)): 65%
